Results as given in the NIST ThermoML archive (doi:10.1021/je300382a).
± gives the expanded uncertainty stated by the source.

Columns and labels:
[1] = xn = mol fraction of the nth substance listed; conditions: Ring tensiometer
[2] = refractive index (Na D-line) (dimensionless); xn = mol fraction of the nth substance listed; conditions: 101 kPa, Liquid, Standard Abbe refractometry

NCc1ccccc1 [benzylamine] + O
Conditions	refractive index, 283.15 K	refractive index, 293.15 K	refractive index, 303.15 K	refractive index, 313.15 K	refractive index, 323.15 K	surface tension liquid-gas, 283.15 K [mN/m]	surface tension liquid-gas, 293.15 K [mN/m]	surface tension liquid-gas, 303.15 K [mN/m]	surface tension liquid-gas, 313.15 K [mN/m]	surface tension liquid-gas, 323.15 K [mN/m]
[1], x1 = 0.0001	–	–	–	–	–	69.5 ± 1.1	67.7 ± 1.6	65.5 ± 1.5	63.2 ± 1.6	61.6 ± 1.1
[1], x1 = 0.0005	–	–	–	–	–	60.4 ± 2.5	58.1 ± 4.2	56.1 ± 4.2	54.3 ± 4.2	52.3 ± 2.5
[1], x1 = 0.001	–	–	–	–	–	54.9 ± 3.2	53.1 ± 4.8	50.6 ± 4.6	48.8 ± 4.5	47.2 ± 3.6
[1], x1 = 0.003	–	–	–	–	–	48.6 ± 8.6	46.1 ± 8.5	44.3 ± 8.5	42.6 ± 8.4	40.1 ± 8.4
[1], x1 = 0.006	–	–	–	–	–	42.1 ± 1.7	40.7 ± 1.4	39.2 ± 1.3	37.7 ± 1.2	36.4 ± 1
[1], x1 = 0.01	–	–	–	–	–	41.4 ± 0.6	40 ± 0.6	38.6 ± 0.6	37.5 ± 0.5	36 ± 0.5
[1], x1 = 0.03	–	–	–	–	–	39.5 ± 0.5	38.4 ± 0.5	37.5 ± 0.5	36.3 ± 0.5	35.6 ± 0.5
[1], x1 = 0.05	–	–	–	–	–	39.3 ± 0.5	38.3 ± 0.5	37.5 ± 0.5	36.3 ± 0.5	35.5 ± 0.5
[1], x1 = 0.07	–	–	–	–	–	38.9 ± 0.5	38.1 ± 0.5	37.3 ± 0.5	36.2 ± 0.5	35.5 ± 0.5
[1], x1 = 0.1	–	–	–	–	–	38.7 ± 0.5	38 ± 0.5	37.2 ± 0.5	36.2 ± 0.5	35.4 ± 0.5
[1], x1 = 0.2	–	–	–	–	–	38.6 ± 0.5	37.8 ± 0.5	37 ± 0.5	36.1 ± 0.5	35.4 ± 0.5
[1], x1 = 0.3	–	–	–	–	–	38.4 ± 0.5	37.5 ± 0.5	36.9 ± 0.5	35.9 ± 0.5	35.2 ± 0.5
[1], x1 = 0.4	–	–	–	–	–	38.4 ± 0.5	37.5 ± 0.5	36.9 ± 0.5	35.9 ± 0.5	35.2 ± 0.5
[1], x1 = 0.5	–	–	–	–	–	38.3 ± 0.5	37.6 ± 0.5	36.8 ± 0.5	35.9 ± 0.5	35.2 ± 0.5
[1], x1 = 0.6	–	–	–	–	–	38.2 ± 0.5	37.4 ± 0.5	36.6 ± 0.5	35.7 ± 0.5	35.2 ± 0.5
[1], x1 = 0.7	–	–	–	–	–	38.1 ± 0.5	37.3 ± 0.5	36.5 ± 0.5	35.8 ± 0.5	35.1 ± 0.5
[1], x1 = 0.8	–	–	–	–	–	38.1 ± 0.5	37.3 ± 0.5	36.5 ± 0.5	35.8 ± 0.5	35.1 ± 0.5
[1], x1 = 0.9	–	–	–	–	–	38 ± 0.5	37.2 ± 0.5	36.4 ± 0.5	35.7 ± 0.5	35.1 ± 0.5
[1], x1 = 1	–	–	–	–	–	37.9 ± 0.6	37.1 ± 0.5	36.3 ± 0.5	35.6 ± 0.5	35 ± 1
[2], x1 = 0.0001	1.3338 ± 0.0003	1.3331 ± 0.0004	1.3321 ± 0.0006	1.331 ± 0.0004	1.3298 ± 0.0003	–	–	–	–	–
[2], x1 = 0.0005	1.3344 ± 0.0007	1.3337 ± 0.0007	1.3326 ± 0.0007	1.3312 ± 0.0007	1.3297 ± 0.0007	–	–	–	–	–
[2], x1 = 0.001	1.3351 ± 0.0013	1.3343 ± 0.0013	1.3333 ± 0.0013	1.3318 ± 0.0013	1.3303 ± 0.0012	–	–	–	–	–
[2], x1 = 0.003	1.3376 ± 0.0018	1.3368 ± 0.002	1.3357 ± 0.002	1.3342 ± 0.0019	1.3327 ± 0.0019	–	–	–	–	–
[2], x1 = 0.006	1.3411 ± 0.002	1.3403 ± 0.0019	1.3392 ± 0.002	1.3376 ± 0.0019	1.3361 ± 0.0018	–	–	–	–	–
[2], x1 = 0.01	1.3461 ± 0.002	1.3449 ± 0.0019	1.3441 ± 0.0019	1.3423 ± 0.0019	1.3405 ± 0.0018	–	–	–	–	–
[2], x1 = 0.03	1.3683 ± 0.0017	1.367 ± 0.0016	1.3654 ± 0.0016	1.3634 ± 0.0016	1.3614 ± 0.0016	–	–	–	–	–
[2], x1 = 0.05	1.387 ± 0.0015	1.3853 ± 0.0014	1.3834 ± 0.0014	1.381 ± 0.0013	1.3787 ± 0.0013	–	–	–	–	–
[2], x1 = 0.07	1.4047 ± 0.0013	1.4007 ± 0.0012	1.3985 ± 0.0012	1.3961 ± 0.0012	1.3937 ± 0.0012	–	–	–	–	–
[2], x1 = 0.1	1.4252 ± 0.0008	1.4214 ± 0.0008	1.4183 ± 0.0008	1.4163 ± 0.0008	1.4136 ± 0.0008	–	–	–	–	–
[2], x1 = 0.2	1.468 ± 0.0006	1.4648 ± 0.0006	1.4614 ± 0.0006	1.4592 ± 0.0006	1.4569 ± 0.0006	–	–	–	–	–
[2], x1 = 0.3	1.4957 ± 0.0005	1.4918 ± 0.0005	1.4879 ± 0.0005	1.4848 ± 0.0005	1.4818 ± 0.0005	–	–	–	–	–
[2], x1 = 0.4	1.5143 ± 0.0004	1.5097 ± 0.0004	1.5057 ± 0.0004	1.5024 ± 0.0004	1.4985 ± 0.0004	–	–	–	–	–
[2], x1 = 0.5	1.5263 ± 0.0004	1.5218 ± 0.0004	1.5172 ± 0.0004	1.5129 ± 0.0004	1.5084 ± 0.0004	–	–	–	–	–
[2], x1 = 0.6	1.5343 ± 0.0004	1.5296 ± 0.0004	1.5252 ± 0.0004	1.5202 ± 0.0004	1.5159 ± 0.0004	–	–	–	–	–
[2], x1 = 0.7	1.5399 ± 0.0004	1.5355 ± 0.0004	1.5307 ± 0.0004	1.5259 ± 0.0004	1.5211 ± 0.0004	–	–	–	–	–
[2], x1 = 0.8	1.5447 ± 0.0004	1.5397 ± 0.0004	1.5344 ± 0.0004	1.5296 ± 0.0004	1.5247 ± 0.0004	–	–	–	–	–
[2], x1 = 0.9	1.5491 ± 0.0004	1.5429 ± 0.0004	1.5375 ± 0.0004	1.5319 ± 0.0004	1.527 ± 0.0004	–	–	–	–	–
[2], x1 = 1	1.5516 ± 0.0004	1.5445 ± 0.0004	1.5393 ± 0.0004	1.5328 ± 0.0004	1.5279 ± 0.0004	–	–	–	–	–
